Like-named read-outs stand apart in the source and are kept apart here.
Key:
[1] = target: T1, interaction between GMPPNP-bound recombinant K-Ras4B G12C mutant protein and cRAF RAS-binding domain (cRAF-RBD) (Homo sapiens, UniProt P01116, G12C); experiment: Inhibitory activity on interaction between KRAS G12C and cRAF (Alpha technology)
T1 construct: His-tag (N)
Procedure, shortened: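 Alpha signal measured 1.5 h after adding cRAF-RBD (aa 50-132) and detection reagents to GMPPNP-bound KRAS G12C (aa 1-169) pretreated 1 h at 25° C with compound (pH 7.5 buffer). 0% inhibition = DMSO, 100% = GDP-loaded KRAS; IC50 by curve fit.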

MIA PaCa-2 cells = experiment: Growth inhibition activity on KRAS-G12C mutant cell line (CellTiter-Glo 3D); format: cell-based, human; conditions: MIA PaCa-2, 3-day culture with compound
Procedure, shortened: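 IC50 (nM) derived from inhibition of luminescence (CellTiter-Glo 3D) relative to compound-free wells. Cells were seeded in U-bottom plates, grown 1 day, then exposed to compound for 3 days at 37 °C with 0.2% final DMSO.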

[2] = GMPPNP-bound KRAS G12C incubated with compound 25° C. 1 hour, Table 2-1, read-out: IC50
[3] = Homo sapiens, MIA PaCa-2, 72 h, Table 3-1
[4] = Homo sapiens, MIA PaCa-2, 72 h, Table 3
[5] = IC50, GMPPNP-bound KRAS G12C incubated with compound 25° C. 1 hour, Table 2

T1 sequence (P01116 with tags, fused parts or gaps isoform P01116-2 G12C): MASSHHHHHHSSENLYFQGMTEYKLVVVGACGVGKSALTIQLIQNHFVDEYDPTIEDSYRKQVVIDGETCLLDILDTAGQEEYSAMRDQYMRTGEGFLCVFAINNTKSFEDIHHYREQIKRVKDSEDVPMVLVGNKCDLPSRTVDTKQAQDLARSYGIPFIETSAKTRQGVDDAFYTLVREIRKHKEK

Cn1cnc2c3c(c(C(F)(F)F)cc21)-c1cccn2c(C(=O)c4cc(F)c(NC(=O)/C=C/CN5[C@@H]6CC[C@H]5[C@H](O)C6)c(F)c4)cc(c12)CCO3 (racemic) [Example 173]
IC50 [1, 2]: 7.02 nM | IC50 (MIA PaCa-2 cells; [3]): 10.6 nM

Cn1cnc2c3c(c(C(F)(F)F)cc21)-c1cccn2c(C(=O)c4cc(F)c(NC(=O)/C=C/CN5CCCC[C@H]5CO)c(F)c4)cc(c12)CCO3 [Example 222, (S,E)-N-(2,6-difluoro-4-(9-methyl-7-(trifluoro-methyl)-13,14-dihydro-9H-imidazo[4″,5″:5′,6′]-benzo[1′,2′:2,3]oxocino-[4,5,6-hi]indolizine-2-carbonyl)phenyl)-4-(2-(hydroxymethyl)piperidin-1-yl)but-2-enamide]
IC50 [1, 2]: 75.8 nM | IC50 (MIA PaCa-2 cells; [3]): 1940 nM

Cn1cnc2c3c(c(C(F)(F)F)cc21)-c1cccn2c(C(=O)c4cc(F)c(NC(=O)/C=C/CN5CC[C@H]5CO)c(F)c4)cc(c12)CCO3 [Example 165, (S,E)-N-(2,6-difluoro-4-(9-methyl-7-(trifluoro-methyl)-13,14-dihydro-9H-imidazo[4″,5″:5′,6′]-benzo[1′,2′:2,3]oxocino-[4,5,6-hi]indolizine-2-carbonyl)phenyl)-4-(2-(hydroxymethyl)azetidin-1-yl)but-2-enamide]
IC50 [1, 2]: 3.75 nM | IC50 (MIA PaCa-2 cells; [3]): 5.44 nM

Cn1cnc2c3c(c(C(F)(F)F)cc21)-c1cccn2c(C(=O)c4cc(F)c(NC(=O)/C=C/CN5CCCC5)c(F)c4)cc(c12)CCO3 [Example 149, (E)-N-(2,6-difluoro-4-(9-methyl-7-(trifluorometh-yl)-13,14-dihydro-9H-imidazo[4″,5″:5′,6′]benzo-[1′,2′:2,3]oxocino[4,5,6-hi]indolizine-2-carbonyl)-phenyl)-4-(pyrrolidin-1-yl)but-2-enamide]
IC50 [1, 2]: 23.7 nM | IC50 (MIA PaCa-2 cells; [3]): 23.4 nM

Cn1cnc2c3c(c(C(F)(F)F)cc21)-c1cccn2c(C(=O)c4cc(F)c(NC(=O)/C=C/CN5CCCOCC5)c(F)c4)cc(c12)CCO3 [Example 193, (E)-N-(2,6-difluoro-4-(9-methyl-7-(trifluorometh-yl)-13,14-dihydro-9H-imidazo[4″,5″:5′,6′]benzo-[1′,2′:2,3]oxocino[4,5,6-hi]indolizine-2-carbonyl)-phenyl)-4-(1,4-oxazepan-4-yl)but-2-enamide]
IC50 [1, 2]: 39.6 nM | IC50 (MIA PaCa-2 cells; [3]): 69.5 nM

Cc1nc2c3c(c(C(F)(F)F)cc2n1C)-c1cccn2c(C(=O)c4cc(F)c(NC(=O)/C=C/CNC5CCP(C)(=O)CC5)c(F)c4)cc(c12)CCO3 (stereo not drawn) [Example 36]
IC50 ([1]; GMPPNP-bound KRAS G12C incubated with compound 25° C. 1 hour, Table 2, read-out: IC50): 13 nM | IC50 (MIA PaCa-2 cells; [4]): 150 nM

CN1CCc2cc(C(=O)c3cc(F)c(NC(=O)/C=C/CN4CC[C@H]4CO)c(F)c3)n3cccc(c23)-c2c(C(F)(F)F)cc3c(ncn3C)c21 (single isomer, unassigned) [Example 199]
IC50 [1, 2]: 10.1 nM | IC50 (MIA PaCa-2 cells; [3]): 3.67 nM

C[C@H](O)[C@@H]1CCCN1C/C=C/C(=O)Nc1c(F)cc(C(=O)c2cc3c4c(cccn24)-c2c(C(F)(F)F)cc4c(ncn4C)c2N(C)CC3)cc1F [Example 219, (E)-N-(4-(9,12-dimethyl-7-(trifluoromethyl)-9,12,13,14-tetrahydro-imidazo[4″,5″:5′,6′]benzo-[1′,2′:2,3]azocino[4,5,6-hi]indolizine-2-carbonyl)-2,6-difluorophenyl)-4-((S)-2-((S)-1-hydroxy-ethyl)pyrrolidin-1-yl)but-2-enamide]
IC50 [1, 2]: 38.5 nM | IC50 (MIA PaCa-2 cells; [3]): 12.6 nM

CO[C@H]1CC[C@H](NC/C=C/C(=O)Nc2c(F)cc(C(=O)c3cc4c5c(cccn35)-c3c(C)cc5c(ncn5C)c3N(C)CC4)cc2F)CC1 [Example 110, (E)-N-(2,6-difluoro-4-(7,9,12-trimethyl-9,12,13,14-tetrahydro-imidazo[4″,5″:5′,6′]benzo-[1′,2′:2,3]azocino[4,5,6-hi]indolizine-2-carbon-yl)phenyl)-4-(((1r,4r)-4-methoxycyclohexyl)-amino)but-2-enamide]
IC50 [1, 2]: 35.7 nM | IC50 (MIA PaCa-2 cells; [3]): 55.8 nM

CO[C@H]1CC[C@H](NC/C=C/C(=O)Nc2c(F)cc(C(=O)c3cn4c5c(cccc35)-c3c(cccc3C(F)(F)F)OCC4)cc2F)CC1 (single isomer, unassigned) [Example 11-2]
IC50 [1, 5]: 77 nM | IC50 (MIA PaCa-2 cells; Table 3): 91 nM

CN1CCc2cc(C(=O)c3cc(F)c(NC(=O)/C=C/CNC4(C)CC4)c(F)c3)n3cccc(c23)-c2c(C(F)(F)F)cc3c(ncn3C)c21 [Example 214, (E)-N-(4-(9.12-dimethyl-7-(trifluoromethyl)-9,12,13,14-tetrahydro-imidazo[4″,5″:5′,6′]benzo-[1′,2′:2,3]azocino[4,5,6-hi]indolizine-2-carbonyl)-2,6-difluorophenyl)-4-((1-methylcyclopropyl)amino)-but-2-enamide]
IC50 [1, 2]: 11.5 nM | IC50 (MIA PaCa-2 cells; [3]): 1.1 nM

Cc1cc2c(nc(C)n2C)c2c1-c1cccc3c(C(=O)c4cc(F)c(NC(=O)/C=C/CNC56CCC(CC5)OC6)c(F)c4)cn(c13)CCN2C [Example 73, (E)-4-((2-oxabicyclo-[2.2.2]octan-4-yl)amino)-N-(2,6-difluoro-4-(6,8,9,11-tetramethyl-8,11,12,13-tetrahydro-imidazo[4″,5″:5′,6′]-benzo[1′,2′:5,6][1,4]-diazocino[7,8,1-hi]indole-2-carbonyl)phenyl)but-2-enamide]
IC50 ([1]; IC50, GMPPNP-bound KRAS G12C incubated with compound 25° C. 1 hour, Table 2-1): 46.9 nM | IC50 (MIA PaCa-2 cells; Table 3-1): 21.6 nM

CC1(NC/C=C/C(=O)Nc2c(F)cc(C(=O)c3cc4c5c(cccn35)-c3c(cc(N5CCNC5=O)cc3C(F)(F)F)OCC4)cc2F)CC1 [Example 233, (E)-N-(2,6-difluoro-4-(7-(2-oxoimidazolidin-1-yl)-9-(trifluoromethyl)-3,4-dihydrobenzo[2,3]oxo-cino[4,5,6-hi]indolizine-1-carbonyl)phenyl)-4-((1-methylcyclopropyl)-amino)but-2-enamide]
IC50 [1, 2]: 52.6 nM | IC50 (MIA PaCa-2 cells; [3]): 14 nM

CN1CCc2cc(C(=O)c3cc(F)c(NC(=O)/C=C/CNC4(C)COC4)c(F)c3)n3cccc(c23)-c2c(C(F)(F)F)cc3c(ncn3C)c21 (single isomer, unassigned) [Example 83]
IC50 [1, 2]: 33.9 nM | IC50 (MIA PaCa-2 cells; [3]): 15.4 nM

CN1CCc2cc(C(=O)c3cc(F)c(NC(=O)/C=C/CN[C@H]4CCOC4)c(F)c3)n3cccc(c23)-c2c(C(F)(F)F)cc3c(ncn3C3CC3)c21 [Example 166, (S,E)-N-(4-(9-cycloprop-yl-12-methyl-7-(trifluoro-methyl)-9,12,13,14-tetra-hydroimidazo[4″,5″:5′,6′]-benzo[1′,2′:2,3]azocino-[4,5,6-hi]indolizine-2-carbonyl)-2,6-difluoro-phenyl)-4-((tetrahydro-furan-3-yl)amino)but-2-enamide]
IC50 [1, 2]: 33.7 nM | IC50 (MIA PaCa-2 cells; [3]): 51.2 nM

CN1CCc2cc(C(=O)c3cc(F)c(NC(=O)/C=C/CNC4(C)COC4)c(F)c3)n3cccc(c23)-c2c(C(F)(F)F)cc3[nH]cnc3c21 (single isomer, unassigned) [Example 179, (E)-N-(2,6-difluoro-4-(12-methyl-7-(trifluorometh-yl)-9,12,13,14-tetrahydro-imidazo[4″,5″:5′,6′]benzo-[1′,2′:2,3]azocino[4,5,6-hi]indolizine-2-carbonyl)-phenyl)-4-((3-methyloxe-tan-3-yl)amino)but-2-enamide]
IC50 [1, 2]: 41.6 nM | IC50 (MIA PaCa-2 cells; [3]): 139 nM

CN1CCc2nc(C(=O)c3cc(F)c(NC(=O)C=CCNC4(C)COC4)c(F)c3)n3cccc(c23)-c2c(C(F)(F)F)cc3c(ncn3C)c21 [Example 157, (E)-N-(4-(8,11-dimethyl-6-(trifluoromethyl)-8,11,12,13-tetrahydro-1,2a,8,10,11-pentaaza-cycloocta[1,2,3-cd:5,4-e′]-diindene-2-carbonyl)-2,6-difluorophenyl)-4-((3-methyloxetan-3-yl)-amino)but-2-enamide]
IC50 [1, 2]: 67.6 nM | IC50 (MIA PaCa-2 cells; [3]): 62.1 nM

COc1cccc2c1-c1cccc3c(C(=O)c4cc(F)c(NC(=O)/C=C/CN[C@H]5CC[C@H](OC)CC5)c(F)c4)cn(c13)CCO2 [Example 10, (E)-N-(2,6-difluoro-4-(10-methoxy-4,5-dihydrobenzo[7,8][1,4]oxazocino[6,5,4-hi]indole-1-carbonyl)phenyl)-4-(((1,4r)-4-methoxycyclohexyl)amino)but-2-enamide]
IC50 [1, 5]: 150 nM | IC50 (MIA PaCa-2 cells; [4]): 230 nM

COCCn1c(COC)nc2c3c(c(OC)cc21)-c1cccn2c(C(=O)c4cc(F)c(NC(=O)/C=C/CN[C@H]5CCOC5)c(F)c4)cc(c12)CCN3C (single isomer, unassigned) [Example 247]
IC50 [1, 2]: 23.4 nM | IC50 (MIA PaCa-2 cells; [3]): 28.5 nM

Cc1cc2c(ncn2C)c2c1-c1cccn3c(C(=O)c4cc(F)c(NC(=O)/C=C/CNC56CCC(CC5)OC6)c(F)c4)cc(c13)CCN2C [Example 134]
IC50 [1, 2]: 31 nM | IC50 (MIA PaCa-2 cells; [3]): 244 nM

CC1Cc2cc(C(=O)c3cc(F)c(NC(=O)/C=C/CNC4(C)COC4)c(F)c3)n3cccc(c23)-c2c(C(F)(F)F)cc3c(ncn3C)c2O1 (single isomer, unassigned) [Example 130-1, (E)-N-(4-(9,13-dimethyl-7-(trifluoromethyl)-13,14-dihydro-9H-imidazo[4″,5″:5′,6′]benzo[1′,2′:2,3]oxocino[4,5,6-hi]indolizine-2-carbonyl)-2,6-difluorophenyl)-4-((3-methyloxetan-3-yl)amino)but-2-enamide]
IC50 [1, 2]: 26.3 nM | IC50 (MIA PaCa-2 cells; Table 3-1): 17.4 nM

From patent US20240262842A1, “SMALL MOLECULE INHIBITORS OF KRAS G12C MUTANT” (Merck Sharp & Dohme LLC, priority 2021, published 2024)
